Measurements from paper PMC8809408 (Frontiers in Pharmacology, 2022).
Counter-ions that a name gives are not always drawn. Like-named read-outs stand apart in the source and are kept apart here.

What was measured:
[1] = tested on: pseudotyped lentiviruses harboring S-protein of SARS-CoV-2; assay: microbe, parasite or virus in culture; assay type: cell-based
[2] = tested on: pseudotyped viruses, triple mutant (N501Y/K417N/E484K) S protein; assay type: cell-based, SARS-CoV-2
[3] = tested on: pseudotyped viruses carrying K417N mutation in S protein; assay type: cell-based, SARS-CoV-2
[4] = tested on: pseudotyped viruses carrying E484K mutation in S protein; assay type: cell-based, SARS-CoV-2
[5] = tested on: pseudotyped viruses carrying N501Y mutation in S protein; assay type: cell-based, SARS-CoV-2
[6] = Severe acute respiratory syndrome coronavirus 2, 24 h

Row | SMILES | luciferase reporter activity (viral infection) [1] | effectiveness against SARS-CoV-2 spike pseudotyped viruses compared with VSV-G pseudotyped viruses (luciferase activity) ([1]; 24 h) | IC50 [1, 6] [µM] | further results
1 | Fc1ccc([C@@H]2CCNC[C@H]2COc2ccc3c(c2)OCO3)cc1 [Paroxetine] | significantly reduced luciferase reporter activity | more effective | 12.6 | selectivity index (SI) [1]: 1.76
2 | N[C@]1(c2ccccc2Cl)CCC[C@H](O)C1=O [2S,6S-HNK, 2S, 6S-Hydroxynorketamine] | neither ketamine nor the metabolites were effective |  |  | 
3 | CN(C)C(=O)COC(=O)Cc1ccc(OC(=O)c2ccc(NC(=N)N)cc2)cc1 [Camostat mesylate] | significantly reduced |  |  | 
4 | CNC1(c2ccccc2Cl)CCCCC1=O (centres unmarked) [Ketamine] | neither ketamine nor the metabolites were effective |  |  | 
5 | COc1ccc(C(CN(C)C)C2(O)CCCCC2)cc1 (centres unmarked) [Venlafaxine] | significantly reduced luciferase reporter activity |  | 36.4 | 
6 | N[C@@]1(c2ccccc2Cl)CCC[C@@H](O)C1=O [2R,6R-HNK, 2R, 6R-Hydroxynorketamine] | neither ketamine nor the metabolites were effective |  |  | 
7 | CN(C)CCCN1c2ccccc2CCc2ccccc21 [Imipramine] | significantly reduced luciferase reporter activity |  | 3.01 | IC50 [1]: 3 µM; selectivity index (SI) [1]: 22.83
8 | OCCN1CCN(CCC=C2c3ccccc3Sc3ccc(C(F)(F)F)cc32)CC1 [Flupenthixol] | Decline of luciferase reporter activity | more effective | 1.07 | selectivity index (SI) [1]: 18.11
9 | CNCCC(Oc1ccc(C(F)(F)F)cc1)c1ccccc1 (centres unmarked) [Fluoxetine] | significantly reduced luciferase reporter activity |  |  | luciferase reporter activity, triple mutant (N501Y/K417N/E484K) pseudovirus [2]: significantly reduced the luciferase reporter activity; luciferase reporter activity, K417N pseudovirus [3]: significantly reduced the luciferase reporter activity; luciferase reporter activity, E484K pseudovirus [4]: significantly reduced the luciferase reporter activity; luciferase reporter activity, N501Y pseudovirus [5]: significantly reduced the luciferase reporter activity; effectiveness against SARS-CoV-2 spike pseudotyped viruses compared with VSV-G pseudotyped viruses (luciferase activity) [1]: more effective; luciferase reporter activity, WT spike pseudovirus [1]: significantly reduced the luciferase reporter activity
10 | CN(C)CCCN1c2ccccc2CCc2ccc(Cl)cc21 [Clomipramine] | significantly reduced luciferase reporter activity |  |  | effectiveness against SARS-CoV-2 spike pseudotyped viruses compared with VSV-G pseudotyped viruses (luciferase activity) [1]: more effective
11 | CNCCCN1c2ccccc2CCc2ccccc21 [Desipramine] | significantly reduced luciferase reporter activity | more effective | 8.1 | 
12 | CN(C)CCCN1c2ccccc2Sc2ccc(Cl)cc21 [Chlorpromazine] | Decline of luciferase reporter activity | more effective | 0.973 | IC50 [1]: 0.972 µM
13 | NNCCc1ccccc1 [Phenelzine] | failed to prevent the viral entry |  |  | 
14 | O=c1[nH]c2ccccc2n1C1CCN(CCCC(c2ccc(F)cc2)c2ccc(F)cc2)CC1 [Pimozide] | Decline of luciferase reporter activity | more effective | 4.54 | 
15 | CN(C)CCCC1(c2ccc(F)cc2)OCc2cc(C#N)ccc21 (centres unmarked) [Citalopram] | significantly reduced luciferase reporter activity | more effective | 27.5 | selectivity index (SI) [1]: 9.97
16 | CCOc1ccccc1OC(c1ccccc1)C1CNCCO1 (centres unmarked) [Reboxetine] | significantly reduced luciferase reporter activity | more effective | 17.7 | 
17 | NC(=O)N1c2ccccc2C=Cc2ccccc21 [Carbamazepine] | failed to change the viral infection |  |  | 
18 | COc1ccc(C2CNC(=O)C2)cc1OC1CCCC1 (centres unmarked) [Rolipram] | failed to prevent the viral entry |  |  | 
